The assay concerns the target T1, rat hepatic microsomal HMG CoA reductase (Rattus norvegicus, UniProt P51639).
T1 construct: rat hepatic microsomal HMG CoA reductase; from tissue; host or cells: rat liver microsomes
T1 sequence (P51639 1-887): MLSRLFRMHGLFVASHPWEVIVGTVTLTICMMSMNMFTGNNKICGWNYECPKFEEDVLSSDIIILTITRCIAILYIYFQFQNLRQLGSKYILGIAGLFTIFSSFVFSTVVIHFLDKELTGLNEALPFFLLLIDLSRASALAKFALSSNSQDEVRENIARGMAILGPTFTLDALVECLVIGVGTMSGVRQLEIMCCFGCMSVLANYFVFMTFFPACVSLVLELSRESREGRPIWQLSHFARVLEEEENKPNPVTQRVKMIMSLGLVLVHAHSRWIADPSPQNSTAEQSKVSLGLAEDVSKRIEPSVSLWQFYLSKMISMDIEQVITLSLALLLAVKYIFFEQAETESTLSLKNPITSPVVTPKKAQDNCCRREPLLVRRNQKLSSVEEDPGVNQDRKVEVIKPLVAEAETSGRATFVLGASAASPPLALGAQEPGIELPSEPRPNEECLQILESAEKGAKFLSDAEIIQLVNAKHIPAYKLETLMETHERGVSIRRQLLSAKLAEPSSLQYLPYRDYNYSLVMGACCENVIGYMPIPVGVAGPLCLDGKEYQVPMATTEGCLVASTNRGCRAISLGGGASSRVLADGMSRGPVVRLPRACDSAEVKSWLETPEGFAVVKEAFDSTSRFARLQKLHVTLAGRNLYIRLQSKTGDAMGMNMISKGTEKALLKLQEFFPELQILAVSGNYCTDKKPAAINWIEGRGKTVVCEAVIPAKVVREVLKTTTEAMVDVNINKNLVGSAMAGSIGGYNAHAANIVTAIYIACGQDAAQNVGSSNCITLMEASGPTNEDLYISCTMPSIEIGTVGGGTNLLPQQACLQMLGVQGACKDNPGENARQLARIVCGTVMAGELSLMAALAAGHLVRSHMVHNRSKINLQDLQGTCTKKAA
As to the kind of experiment: inhibition of rat hepatic microsomal HMG CoA reductase activity in vitro (Table I). Type of assay: biochemical. The following applies: for inhibition at 0.25 µg/mL: 0.25 micrograms/ml; for inhibition at 0.74 µg/mL: 0.74 micrograms/ml; for inhibition at 2.22 µg/mL: 2.22 micrograms/ml; for inhibition at 6.66 µg/mL: 6.66 micrograms/ml; for inhibition at 0.082 µg/mL: 0.082 micrograms/ml; for inhibition at 2 µg/mL: 2.0 micrograms/ml; for inhibition at 20 µg/mL: 20.0 micrograms/ml. The source says:
In the table the concentrations of the test compounds are expressed in micrograms/ml.

Molecules are shown by their SMILES.

Regarding `COc1ccc(-n2c(/C=C/[C@@H]3C[C@@H](O)CC(=O)O3)c(C(C)C)c3ccccc3c2=O)cc1` [N, (4R,6S)-(E)-4-hydroxy-6-(2-(2-(4-methoxyphenyl)-4-isopropyl-1-oxo-1,2-dihydroisoquinolin-3-yl)ethen-1-yl)-3,4,5,6-tetrahydro-2H-pyran-2-one], the inhibition (in general, the change of the read-out against control, counted positive when it falls) at 0.25 µg/mL was determined as 13%; the inhibition at 0.74 µg/mL was 34%; the inhibition at 2.22 µg/mL is 59%; the inhibition at 6.66 µg/mL amounted to 80%. Also, the inhibition at 0.0824 µg/mL (0.0824 micrograms/ml) amounted to 16%.

For `CC(C)c1c(/C=C/[C@@H](O)C[C@@H](O)CC(=O)O)n(-c2ccc(F)cc2)c(=O)c2ccccc12` [AG, sodium (3R,5S)-(E)-3,5-dihydroxy-7-(2-(4-fluorophenyl)-4-isopropyl-1-oxo-1,2-dihydroisoquinolin-3-yl)hept-6-enoate], testing at 0.082 µg/mL gave an inhibition of 57%, the inhibition at 0.25 µg/mL came out at 74%, the inhibition at 0.74 µg/mL was 89% and the inhibition at 2.22 µg/mL turned out to be 96%. For the setting “0.0274 micrograms/ml”, the inhibition at 0.0274 µg/mL was 15%.

Regarding `Cn1c(/C=C/C(O)CC(O)CC(=O)O)c(-c2ccccc2)c2ccccc2c1=O` (stereo not shown) [BA, sodium (E)-3,5-dihydroxy-7-(2-methyl-1-oxo-4-phenyl-1,2-dihydroisoquinolin-3-yl)hept-6-enoate], the inhibition at 2 µg/mL was 0% and 20 µg/mL produced 61% inhibition.

In turn, `CC(C)n1c(/C=C/C2CC(O)CC(=O)O2)c(-c2ccc(F)cc2)c2ccccc2c1=O` (stereo not shown) [Compound G, (E)-4-hydroxy-6-[2-{4-(4-fluorophenyl)-2-isopropyl-1-oxo-1,2-dihydroisoquinolin-3-yl}ethenyl]-3,4,5,6-tetrahydro-2H-pyran-2-one] displayed an inhibition at 0.082 µg/mL of 14%, an inhibition at 0.25 µg/mL of 29%, an inhibition at 0.74 µg/mL of 58% and an inhibition at 2.22 µg/mL of 81%. This compound also came in with an inhibition at 6.66 µg/mL of 93% and an inhibition at 20 µg/mL of 97%.

Regarding `CC(C)c1c(/C=C/[C@@H]2C[C@@H](O)CC(=O)O2)n(C2CCCCC2)c(=O)c2ccccc12` [Z, (4R,6S)-(E)-6-(2-(2-cyclohexyl-4-isopropyl-1-oxo-1,2-dihydroisoquinolin-3-yl)ethen-1-yl)-4-hydroxy-3,4,5,6-tetrahydro-2H-pyran-2-one], the inhibition at 0.082 µg/mL came to 50%, 0.25 µg/mL produced 77% inhibition, the inhibition at 0.74 µg/mL stood at 88% and the inhibition at 2.22 µg/mL stood at 96%. This compound yielded an inhibition at 6.66 µg/mL of 99%.

Compound `Cn1c(/C=C/C(O)CC(O)CC(=O)O)c(-c2ccccc2)c2ccccc2c1=O` (stereo not shown) [B, (E)-3,5-dihydroxy-7-(2-methyl-1-oxo-4-phenyl-1,2-dihydroisoquinolin-3-yl)hept-6-enoic acid] returned an inhibition at 2 µg/mL of 5% and an inhibition at 20 µg/mL of 65%.

The values above are taken from patent US5004747A, “Isoquinolinones” (May & Baker Limited, priority 1988, dated 1991).
